Measurements taken from PubChem BioAssay AID256 (DTP/NCI, 2004).
Where “and” joins values, the source holds several entries; their conditions need not be identical. Identical values can stand only once. Toxic doses and inconclusive results are not listed. Rule for the calls: active = survival T/C of 150% or more; inactive = T/C below 125% in these data.

Tested on: CD2F1 mice, L1210 leukemia ip, survival T/C
Test: NCI In Vivo Anticancer Drug Screen. Data for tumor model L1210 Leukemia (intraperitoneal) in CD2F1 (CDF1) mice
Details: higher = longer survival
How it was run: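 Ratio T/C, where T is the treated-group value and C the vehicle-dosed control value, from mice implanted with a transplantable tumor.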

[1] = endpoint: mean survival time, dose: 100.0 mg/kg/injection, schedule: Q01DX009 (ip), vehicle: saline with Tween-80
[2] = endpoint: mean survival time, dose: 200.0 mg/kg/injection, schedule: Q01DX009 (ip), vehicle: saline with Tween-80
[3] = endpoint: mean survival time, dose: 400.0 mg/kg/injection, schedule: Q01DX009 (ip), vehicle: saline with Tween-80
[4] = endpoint: mean survival time, dose: 25.0 mg/kg/injection, schedule: Q04DX003 (ip), vehicle: saline with Tween-80
[5] = endpoint: mean survival time, dose: 50.0 mg/kg/injection, schedule: Q04DX003 (ip), vehicle: saline with Tween-80
[6] = endpoint: mean survival time, dose: 100.0 mg/kg/injection, schedule: Q04DX003 (ip), vehicle: saline with Tween-80
[7] = endpoint: mean survival time, dose: 200.0 mg/kg/injection, schedule: Q04DX003 (ip), vehicle: saline with Tween-80
[8] = endpoint: mean survival time, dose: 400.0 mg/kg/injection, schedule: Q04DX003 (ip), vehicle: saline with Tween-80

Measured: T/C

COC1OC(COS(C)(=O)=O)C(OS(C)(=O)=O)C(OS(C)(=O)=O)C1OS(C)(=O)=O (configuration not stated)
inactive: [1] 95 % of control | [2] 101 % of control | [3] 94 % of control

CCc1ccc(N=Nc2ccc(N(C)C)cc2)cc1CC
inactive: endpoint: mean survival time, dose: 75.0 mg/kg/injection, schedule: Q04DX002 (ip), vehicle: saline with Tween-80 92 % of control | endpoint: mean survival time, dose: 150.0 mg/kg/injection, schedule: Q04DX002 (ip), vehicle: saline with Tween-80 92 % of control | endpoint: mean survival time, dose: 300.0 mg/kg/injection, schedule: Q04DX002 (ip), vehicle: saline with Tween-80 88 % of control

Cc1ccc(C(=O)CCC(=O)O)c(C)c1
inactive: [1] 100 % of control | [2] 105 % of control | [3] 98 % of control

CC(C)CSCC1OC(n2cnc3c(N)nccc32)C(O)C1O (configuration not stated)
inactive: endpoint: mean survival time, dose: 3.13 mg/kg/injection, schedule: Q03HX024 (ip), vehicle: distilled water + Tween-80 100 % of control | endpoint: mean survival time, dose: 6.25 mg/kg/injection, schedule: Q03HX024 (ip), vehicle: distilled water + Tween-80 105 % of control | endpoint: mean survival time, dose: 12.5 mg/kg/injection, schedule: Q01DX005 (ip), vehicle: distilled water + Tween-80 107 % of control | endpoint: mean survival time, dose: 12.5 mg/kg/injection, schedule: Q03HX024 (ip), vehicle: distilled water + Tween-80 96 % of control | endpoint: mean survival time, dose: 25.0 mg/kg/injection, schedule: Q01DX005 (ip), vehicle: distilled water + Tween-80 115 % of control | endpoint: mean survival time, dose: 25.0 mg/kg/injection, schedule: Q03HX024 (ip), vehicle: distilled water + Tween-80 100 % of control | endpoint: mean survival time, dose: 50.0 mg/kg/injection, schedule: Q01DX005 (ip), vehicle: distilled water + Tween-80 100 % of control | endpoint: mean survival time, dose: 50.0 mg/kg/injection, schedule: Q03HX024 (ip), vehicle: distilled water + Tween-80 96 % of control | endpoint: mean survival time, dose: 100.0 mg/kg/injection, schedule: Q01DX005 (ip), vehicle: distilled water + Tween-80 88 % of control | endpoint: mean survival time, dose: 100.0 mg/kg/injection, schedule: Q03HX024 (ip), vehicle: distilled water + Tween-80 86 % of control

CN1CCCC1CCNc1nc(-c2ccc(C(Cl)(Cl)Cl)cc2)nc(C(Cl)(Cl)Cl)n1 (configuration not stated)
inactive: endpoint: mean survival time, dose: 100.0 mg/kg/injection, schedule: Q01DX001 (ip), vehicle: saline with Tween-80 95 % of control | [1] 95 % of control | endpoint: mean survival time, dose: 200.0 mg/kg/injection, schedule: Q01DX001 (ip), vehicle: saline with Tween-80 95 % of control | endpoint: mean survival time, dose: 400.0 mg/kg/injection, schedule: Q01DX001 (ip), vehicle: saline with Tween-80 94 % of control

[Cl][Pt+2][Cl].[NH-]c1ccc(S(=O)(=O)Nc2ccccn2)cc1.[NH-]c1ccc(S(=O)(=O)Nc2ccccn2)cc1
inactive: [4] 97 % of control | [5] 97 % of control | [6] 96 % of control | [7] 102 % of control | [8] 107 % of control

CCOC(=O)CN(C=O)C(C)c1ccccc1 (configuration not stated)
inactive: [6] 98 % of control | [7] 93 % of control | [8] 92 % of control

O=C1C(=O)C(Cl)=C(Cl)C(Cl)=C1Cl
inactive: endpoint: mean survival time, dose: 12.5 mg/kg/injection, schedule: Q01DX009 (ip), vehicle: saline with Tween-80 96 % of control | endpoint: mean survival time, dose: 12.5 mg/kg/injection, schedule: Q04DX003 (ip), vehicle: saline with Tween-80 93 % of control | endpoint: mean survival time, dose: 25.0 mg/kg/injection, schedule: Q01DX009 (ip), vehicle: saline with Tween-80 92 % of control | [4] 104 % of control | [5] 104 % of control

CN(N)c1nc2c(=O)[nH]c(N)nc2n1C1OC(CO)C(O)C1O (configuration not stated)
inactive: endpoint: mean survival time, dose: 1.56 mg/kg/injection, schedule: Q01DX005 (ip), vehicle: water 101 % of control | endpoint: mean survival time, dose: 3.12 mg/kg/injection, schedule: Q01DX005 (ip), vehicle: water 101 % of control | endpoint: mean survival time, dose: 6.25 mg/kg/injection, schedule: Q01DX005 (ip), vehicle: water 101 % of control | endpoint: mean survival time, dose: 12.5 mg/kg/injection, schedule: Q01DX005 (ip), vehicle: water 98 % of control | endpoint: mean survival time, dose: 25.0 mg/kg/injection, schedule: Q01DX005 (ip), vehicle: water 103 % of control

CC12C(=O)C=CCC1=CCC1C2CCC2(O)C(=O)OC3(C)C4CC5(C)C(COC16OC23C5C6=O)C(=O)O4 (configuration not stated)
inactive: endpoint: median survival time, dose: 25.0 mg/kg/injection, schedule: Q01DX009 (ip), vehicle: Klucel (hydroxypropylcellulose) (HPC) 102 % of control | endpoint: median survival time, dose: 50.0 mg/kg/injection, schedule: Q01DX009 (ip), vehicle: Klucel (hydroxypropylcellulose) (HPC) 96 % of control | endpoint: median survival time, dose: 100.0 mg/kg/injection, schedule: Q01DX009 (ip), vehicle: Klucel (hydroxypropylcellulose) (HPC) 100 % of control | endpoint: median survival time, dose: 200.0 mg/kg/injection, schedule: Q01DX009 (ip), vehicle: Klucel (hydroxypropylcellulose) (HPC) 108 % of control

Cc1nccc2c1[nH]c1cc(N)ccc12.[Cl][Sn][Cl]
inactive: endpoint: mean survival time, dose: 5.0 mg/kg/injection, schedule: Q01DX009 (ip), vehicle: saline with Tween-80 115 % of control | endpoint: mean survival time, dose: 10.0 mg/kg/injection, schedule: Q01DX009 (ip), vehicle: saline with Tween-80 103 % of control | endpoint: mean survival time, dose: 20.0 mg/kg/injection, schedule: Q01DX009 (ip), vehicle: saline with Tween-80 102 % of control

Cc1cc(N(CCOS(C)(=O)=O)CCOS(C)(=O)=O)ccc1N=Nc1ccccc1
inactive: endpoint: mean survival time, dose: 3.12 mg/kg/injection, schedule: Q01DX009 (ip), vehicle: Klucel (hydroxypropylcellulose) (HPC) 106 % of control | endpoint: mean survival time, dose: 6.25 mg/kg/injection, schedule: Q01DX009 (ip), vehicle: Klucel (hydroxypropylcellulose) (HPC) 113 % of control | endpoint: mean survival time, dose: 12.5 mg/kg/injection, schedule: Q01DX009 (ip), vehicle: Klucel (hydroxypropylcellulose) (HPC) 114 % of control and 124 % of control | endpoint: mean survival time, dose: 25.0 mg/kg/injection, schedule: Q01DX009 (ip), vehicle: Klucel (hydroxypropylcellulose) (HPC) 101 % of control | endpoint: mean survival time, dose: 50.0 mg/kg/injection, schedule: Q01DX009 (ip), vehicle: Klucel (hydroxypropylcellulose) (HPC) 95 % of control

C=C1C(=O)O[C@@H]2C[C@@H](C)[C@@H]3C=CC(=O)[C@@]3(C)[C@@H](O)[C@H]12
inactive: endpoint: mean survival time, dose: 8.0 mg/kg/injection, schedule: Q04DX003 (ip), vehicle: saline with Tween-80 117 % of control

N#CSCCSC#N
inactive: endpoint: mean survival time, dose: 2.5 mg/kg/injection, schedule: Q04DX003 (ip), vehicle: Klucel (hydroxypropylcellulose) (HPC) 102 % of control | endpoint: mean survival time, dose: 5.0 mg/kg/injection, schedule: Q04DX003 (ip), vehicle: Klucel (hydroxypropylcellulose) (HPC) 120 % of control | endpoint: mean survival time, dose: 10.0 mg/kg/injection, schedule: Q04DX003 (ip), vehicle: Klucel (hydroxypropylcellulose) (HPC) 105 % of control

CCC(c1ccc(O)c(C2CCCCC2)c1)C(CC)c1ccc(OC(=O)c2ccccc2)c(C2CCCCC2)c1 (configuration not stated)
inactive: endpoint: mean survival time, dose: 75.0 mg/kg/injection, schedule: Q01DX001 (ip), vehicle: saline 109 % of control | endpoint: mean survival time, dose: 150.0 mg/kg/injection, schedule: Q01DX001 (ip), vehicle: saline 100 % of control | endpoint: mean survival time, dose: 300.0 mg/kg/injection, schedule: Q01DX001 (ip), vehicle: saline 106 % of control

c1ccc(COCc2ccccc2Cn2ccnc2)cc1
inactive: endpoint: mean survival time, dose: 10.0 mg/kg/injection, schedule: Q04DX003 (ip), vehicle: saline 120 % of control | endpoint: mean survival time, dose: 20.0 mg/kg/injection, schedule: Q04DX003 (ip), vehicle: saline 101 % of control | endpoint: mean survival time, dose: 40.0 mg/kg/injection, schedule: Q04DX003 (ip), vehicle: saline 95 % of control

Clc1ccc(COc2ccc(Cl)cc2Cn2ccnc2)c(Cl)c1
inactive: [1] 101 % of control | [2] 95 % of control | [3] 98 % of control

CCOC(=O)C12CCC(C1=O)C(C)(O)CC2 (configuration not stated)
inactive: endpoint: mean survival time, dose: 50.0 mg/kg/injection, schedule: Q01DX009 (ip), vehicle: acetone 92 % of control | endpoint: mean survival time, dose: 100.0 mg/kg/injection, schedule: Q01DX009 (ip), vehicle: acetone 90 % of control | endpoint: mean survival time, dose: 200.0 mg/kg/injection, schedule: Q01DX009 (ip), vehicle: acetone 94 % of control

C1CCC2(CCC34CCCCC3CCCC4)CCCCC2C1 (configuration not stated)
inactive: [6] 101 % of control | [7] 102 % of control | [8] 102 % of control

NC(=N\O)/C(N)=N/O.[Cl][Pd][Cl]
inactive: endpoint: median survival time, dose: 3.12 mg/kg/injection, schedule: Q04DX003 (ip), vehicle: saline 100 % of control | endpoint: median survival time, dose: 6.25 mg/kg/injection, schedule: Q04DX003 (ip), vehicle: saline 100 % of control | endpoint: median survival time, dose: 12.5 mg/kg/injection, schedule: Q04DX003 (ip), vehicle: saline 103 % of control | endpoint: median survival time, dose: 25.0 mg/kg/injection, schedule: Q04DX003 (ip), vehicle: saline 100 % of control | endpoint: median survival time, dose: 50.0 mg/kg/injection, schedule: Q04DX003 (ip), vehicle: saline 97 % of control | endpoint: median survival time, dose: 100.0 mg/kg/injection, schedule: Q04DX003 (ip), vehicle: saline 98 % of control | endpoint: median survival time, dose: 200.0 mg/kg/injection, schedule: Q04DX003 (ip), vehicle: saline 97 % of control

CS(=O)(=O)OCC(=O)C(=O)COS(C)(=O)=O
inactive: endpoint: mean survival time, dose: 25.0 mg/kg/injection, schedule: Q01DX001 (ip), vehicle: saline 91 % of control | endpoint: mean survival time, dose: 50.0 mg/kg/injection, schedule: Q01DX001 (ip), vehicle: saline 94 % of control | endpoint: mean survival time, dose: 100.0 mg/kg/injection, schedule: Q01DX001 (ip), vehicle: saline 96 % of control and 103 % of control
